Experimental data as given in BigSolDB 2.1.

O=C(NC[C@H]1CN(c2ccc(N3CCOCC3=O)cc2)C(=O)O1)c1ccc(Cl)s1
solubility (mole fraction)
Details	283.15 K	288.15 K	293.15 K	298.15 K	303.15 K	308.15 K
in dichloromethane	0.000254	0.00028	0.000308	0.000338	0.00037	0.000403
in ethanol	1.21e-05	1.46e-05	1.75e-05	2.09e-05	2.5e-05	2.94e-05
in methanol	2.41e-05	2.97e-05	3.63e-05	4.42e-05	5.29e-05	6.36e-05
in n-butanol	5.56e-06	7.84e-06	1.08e-05	1.48e-05	2.01e-05	2.73e-05
in n-propanol	7.99e-06	1.05e-05	1.37e-05	1.77e-05	2.26e-05	2.88e-05
